Experimental data: patent US20060046968A1, “Prodrug substituted benzoxazoles as estrogenic agents” (priority 2004, published 2006)
Several values for one entry are separate records, joined by “and”; a condition that tells them apart may be missing. Identical values can stand only once.

Tests used:
[1] = tested on: Sexually immature Sprague-Dawley rats; assay: Rat uterotrophic test procedure (Procedure 1); assay type: in vivo
[2] = tested on: morphine-addicted rats; assay: Rat hot flush test procedure (tail skin temperature after naloxone); assay type: in vivo
Source text: The effect of test compounds on hot flushes can be evaluated in a standard pharmacological test procedure that measures the ability of a test compound to blunt the increase in tail skin temperature, which occurs as morphine-addicted rats are acutely withdrawn from the drug using naloxone [Merchenthaler, et al., Maturitas 30: 307-16 (1998)]. It can also be used to detect estrogen receptor antagonist activity by co-dosing test compound with the reference estrogen. The following data were obtained from representative metabolites of compounds of the invention (Table 7).

[3] = tested on: Sexually immature 129 SvE mice; assay: Mouse uterotrophic test procedure (Procedure 2); assay type: in vivo; details: compound 50 mg/kg s.c., days 22-25
[4] = tested on: Progesterone receptor mRNA; assay: Progesterone receptor mRNA regulation in the preoptic area of the rat brain; assay type: in vivo; details: 10 mg/kg
[5] = tested on: ovulation (number of oocytes ovulated); assay: Ovulation inhibition test procedure; assay type: in vivo; details: 50 mg/kg
Source text: The test procedure is used to determine whether test compounds can inhibit or change the timing of ovulation. It can also be used to determine the number of oocytes ovulated [Lundeen, et al., J Steroid Biochem Mol Biol 78: 137-143 (2001)]. The following data were obtained from representative metabolites of compounds from the invention (Table 22).

[6] = tested on: Male HLA-B27 rats; assay: HLA-B27 rat test for inflammatory bowel disease: histological scoring of colon; assay type: in vivo; details: Study B; oral 4 weeks; 10 mg/kg days 1-14, then 20 mg/kg
Description: Representative metabolites of compounds of the invention were evaluated in the HLA rat standard pharmacological test procedure, which emulates inflammatory bowel disease in humans. The following briefly describes the procedure used and results obtained. […] Louis) and water. Stool quality was observed daily and graded according to the following scale: Diarrhea=3; soft stool=2; normal stool=1. At the end of the study, serum was collected and stored at −70° C. A section of colon was prepared for histological analysis and an additional segment was analyzed for myeloperoxidase activity. In Study A, rats (22-26 weeks old) were dosed subcutaneously once per day for seven days with one of the regimens listed below. […] Histological analysis. Colonic tissue was immersed in 10% neutral buffered formalin. Each specimen of colon was separated into four samples for evaluation. The formalin-fixed tissues were processed in a Tissue-Tek® vaccum infiltration processor (Miles, Inc; West Haven, Conn.) for paraffin embedding. The samples were sectioned at 5 μm and then stained with hematoxylin and eosin (H&E) for blinded histological evaluations using a scale modified after Boughton-Smith. After the scores were completed, the samples were unblinded, and data were tabulated and analyzed by ANOVA linear modeling with multiple mean comparisons. Sections of colonic tissue were evaluated for several disease indicators and given relative scores.

[7] = tested on: Male HLA-B27 rats; assay: HLA rat test for inflammatory bowel disease: stool character (3 = diarrhea; 2 = soft stool; 1 = normal stool); assay type: in vivo; details: Study B
[8] = tested on: Male HLA-B27 rats; assay: HLA-B27 rat model of arthritis: joint scores; assay type: in vivo; details: Study 2
[9] = tested on: Female Mongolian gerbils; assay: Transient global ischemia in the Mongolian gerbil: neurogranin mRNA in hippocampus; assay type: in vivo; details: gerbil hippocampus after 5 min global ischemia; s.c. daily
Description: Transient global ischemia in the Mongolian gerbil. The effect of test compounds on preventing or treating brain injury in response to oxygen deprivation/reperfusion were measured using the following test procedure.
Female Mongolian gerbils (60-80 g; Charles River Laboratories, Kingston, N.Y.) were housed in the Wyeth-Ayerst animal care facility Association for Assessment and Acreditation of Laboratory Animal Care (AAALAC) certified with a 12-hour light, 12-hour dark photoperiod and free access to tap water and a low-estrogen casein diet (Purina®; Richmond, Ind.). After acclimation (3-5 days), gerbils were anesthetized with isoflurane (2-3% mixture with O2), ovariectomized (Day 0). […] On Day 6, gerbils (n=4-5/group) were anesthetized with isoflurane, the common carotid arteries visualized via a mid-line neck incision and both arteries simultaneously occluded for 5 minutes with non-traumatic micro aneurysm clips. […]
The degree of neuronal protection was evaluated by in situ hybridization analysis of neurogranin mRNA. […]
Neurogranin mRNA was selected for these studies because it is highly expressed in the hippocampal neurons including CA1, but absent in glia and other cell types present in this brain region. […] The results from 6 sections (40 μm apart) per animal were averaged and statistically evaluated. […]

[10] = biological target: T1, human ERα (Homo sapiens, UniProt P03372); assay: ER radioligand binding competition, ERα; details: competition with [3H]-17β-estradiol; read-out: ER-α IC50
T1 construct: These templates contained amino acids M250-V595 of human ERα; His (N); Flag (C); made in house; host or cells: E. coli BL21 (DE3), clarified lysate
T1 sequence (P03372 250-595): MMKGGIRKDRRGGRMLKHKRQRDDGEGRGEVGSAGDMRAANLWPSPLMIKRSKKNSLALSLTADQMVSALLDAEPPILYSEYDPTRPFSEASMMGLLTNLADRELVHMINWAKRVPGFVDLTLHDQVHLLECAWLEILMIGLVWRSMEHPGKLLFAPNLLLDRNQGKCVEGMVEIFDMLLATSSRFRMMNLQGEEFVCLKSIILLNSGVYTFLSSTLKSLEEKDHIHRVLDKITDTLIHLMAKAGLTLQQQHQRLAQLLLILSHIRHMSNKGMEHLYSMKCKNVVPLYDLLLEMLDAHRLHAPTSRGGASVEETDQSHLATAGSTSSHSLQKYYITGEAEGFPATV

[11] = biological target: T2, human ERβ (Homo sapiens, UniProt Q92731); assay: ER radioligand binding competition, ERβ
T2 construct: Flag (C); made in house; host or cells: E. coli BL21 (DE3), clarified lysate
T2 sequence (Q92731 214-530): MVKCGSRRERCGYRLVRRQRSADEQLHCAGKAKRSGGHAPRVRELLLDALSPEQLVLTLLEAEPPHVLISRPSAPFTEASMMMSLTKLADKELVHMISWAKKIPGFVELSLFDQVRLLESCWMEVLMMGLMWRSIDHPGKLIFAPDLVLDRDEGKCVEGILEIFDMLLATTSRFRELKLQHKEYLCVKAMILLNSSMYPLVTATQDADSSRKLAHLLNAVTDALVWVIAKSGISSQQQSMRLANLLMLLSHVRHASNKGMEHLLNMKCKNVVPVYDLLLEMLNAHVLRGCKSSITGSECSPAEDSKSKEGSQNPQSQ

[12] = compound 2 mg/rat + 17α-ethinyl, 17β-estradiol 0.06 μg/rat s.c. (antagonist mode)
[13] = oral 20 mg/kg (10 mg/kg days 1-14), Day 16
[14] = oral 20 mg/kg (10 mg/kg days 1-14), Day 17
[15] = oral 20 mg/kg (10 mg/kg days 1-14), Day 19
[16] = oral 20 mg/kg (10 mg/kg days 1-14), Day 22
[17] = oral 20 mg/kg (10 mg/kg days 1-14), Day 23
[18] = oral 20 mg/kg (10 mg/kg days 1-14), Day 26

Compound: C#C[C@]1(O)CC[C@H]2[C@@H]3CCc4cc(O)ccc4[C@H]3CC[C@@]21C [17α-ethinyl, 17β-estradiol, 17α-ethinyl-17β-estradiol, reference compound]
- mean uterine weight ± SEM ([1]; reference estrogen alone, 0.06 μg/rat s.c., days 19-21): 104.7 ± 5.4 mg and 85.5 ± 3.1 mg
- Temperature change 15 minutes after naloxone injection (mean ± SEM) ([2]; 0.3 mg/kg): 2.12 ± 1.14

Compound: Oc1ccc(-c2nc3cc(O)ccc3o2)cc1 [Example 12, 2-(4-HYDROXYPHENYL)-1,3-BENZOXAZOL-5-OL]
- mean uterine weight ± SEM [3]: 13.7 ± 0.82 mg
- mean uterine weight ± SEM [1, 12]: 60.2 ± 4.0 mg
- Progesterone receptor mRNA (mean ± stdev) [4]: 256.2 ± 42.3 arbitrary units

Compound: Oc1ccc(-c2nc3cc(O)cc(Br)c3o2)cc1 [Example 20, 7-BROMO-2-(4-HYDROXYPHENYL)-1,3-BENZOXAZOL-5-OL]
- Number of oocytes (mean ± SEM) [5]: 14.13 ± 0.79
- mean uterine weight ± SEM [1, 12]: 95.9 ± 5.5 mg
- Temperature change 15 minutes after naloxone injection (mean ± SEM) ([2]; 15 mg/kg): 5.28 ± 0.71

Compound: C=Cc1cc(O)cc2nc(-c3ccc(O)cc3F)oc12 [Example 25, 2-(2-FLUORO-4-HYDROXYPHENYL)-7-VINYL-1,3-BENZOXAZOL-5-OL]
- mean uterine weight ± SEM [3]: 9.7 ± 1.0 mg
- Fibrosis (0-2), mean ± SD [6]: 0.31 ± 0.13
- Inflammation (0-3), mean ± SD [6]: 1.50 ± 0.35
- Lesion depth (0-2), mean ± SD [6]: 0.44 ± 0.24
- Total score, mean ± SD [6]: 2.69 ± 0.52
- Ulceration (0-2), mean ± SD [6]: 0.44 ± 0.24
- Stool Character (group's average score) ([7]; oral 10 mg/kg, Day 1): 1
- Stool Character (group's average score) ([7]; oral 10 mg/kg, Day 2): 1
- Stool Character (group's average score) ([7]; oral 10 mg/kg, Day 3): 1.25
- Stool Character (group's average score) ([7]; oral 10 mg/kg, Day 4): 1.25
- Stool Character (group's average score) ([7]; oral 10 mg/kg, Day 5): 1.75
- Stool Character (group's average score) ([7]; oral 10 mg/kg, Day 6): 1.5
- Stool Character (group's average score) ([7]; oral 10 mg/kg, Day 9): 1.75
- Stool Character (group's average score) ([7]; oral 10 mg/kg, Day 10): 1.5
- Stool Character (group's average score) ([7]; oral 10 mg/kg, Day 12): 1.75
- Stool Character (group's average score) ([7]; oral 10 mg/kg, Day 13): 2.25
- Stool Character (group's average score) [7, 13]: 1.5
- Stool Character (group's average score) [7, 14]: 1.5
- Stool Character (group's average score) ([7]; oral 20 mg/kg (10 mg/kg days 1-14), Day 18): 1.5
- Stool Character (group's average score) [7, 15]: 1.25
- Stool Character (group's average score) [7, 16]: 1.25
- Stool Character (group's average score) [7, 17]: 1.25
- Stool Character (group's average score) ([7]; oral 20 mg/kg (10 mg/kg days 1-14), Day 24): 1.25
- Stool Character (group's average score) ([7]; oral 20 mg/kg (10 mg/kg days 1-14), Day 25): 1.25
- Stool Character (group's average score) [7, 18]: 1.25
- Progesterone receptor mRNA (mean ± stdev) [4]: 447.0 ± 60.7 arbitrary units
- Joint inflammation score ([8]; oral 10 mg/kg, Day 1): 0
- Joint inflammation score ([8]; oral 10 mg/kg, Day 2): 0
- Joint inflammation score ([8]; oral 10 mg/kg, Day 3): 0
- Joint inflammation score ([8]; oral 10 mg/kg, Day 4): 0
- Joint inflammation score ([8]; oral 10 mg/kg, Day 5): 0
- Joint inflammation score ([8]; oral 10 mg/kg, Day 6): 0
- Joint inflammation score ([8]; oral 10 mg/kg, Day 7): 0
- Joint inflammation score ([8]; oral 10 mg/kg, Day 8): 1
- Joint inflammation score ([8]; oral 10 mg/kg, Day 10): 2.25
- Joint inflammation score ([8]; oral 10 mg/kg, Day 11): 2.25
- Joint inflammation score ([8]; oral 20 mg/kg (10 mg/kg days 1-14), Day 15): 3.75
- Joint inflammation score [8, 13]: 3
- Joint inflammation score [8, 14]: 2.75
- Joint inflammation score [8, 15]: 1.5
- Joint inflammation score [8, 16]: 1.25
- Joint inflammation score [8, 17]: 2.5
- Joint inflammation score [8, 18]: 1.75

Compound: N#Cc1cc(O)cc2nc(-c3ccc(O)cc3)oc12 [Example 41, 5-HYDROXY-2-(4-HYDROXYPHENYL)-1,3-BENZOXAZOL-7-CARBONITRILE]
- mean uterine weight ± SEM [1, 12]: 76.6 ± 3.0 mg
- Neurogranin mRNA (mean ± stdev) [9]: 43.0 ± 21.8 arbitrary units
- Temperature change 15 minutes after naloxone injection (mean ± SEM) ([2]; 15 mg/kg): 5.25 ± 0.72

Compound: C=C(F)c1cc(O)cc2nc(-c3ccc(O)c(F)c3)oc12 [Example 64, 2-(3-FLUORO-4-HYDROXYPHENYL)-7-(1-FLUOROVI NYL)-1,3-BENZOXAZOL-5-OL]
- IC50 [10]: 376 nM
- mean uterine weight ± SEM [3]: 9.8 ± 0.7 mg
- IC50 [11]: 3 nM
- Progesterone receptor mRNA (mean ± stdev) [4]: 431.3 ± 65.6 arbitrary units
